Experimental findings from US7585667B2, “Negative strand RNA virus replicon” (The United States of America as represented by The …, priority 2003, dated 2009) are described below.

This data set deals with BHK-SR19-T7 cells. The data set is described as follows: Blasticidin concentration that kills BHK-SR19-T7 cells. The class given is cell-based, hamster. Conditions: in medium. Here is the method: To launch the replicon, MP295 and the four RSV support plasmids necessary for virus replication and gene expression, N, P, L, and M2-1 were transfected into two 35 mm wells of BHK-SR19-T7 cells (FIG. 4). On day 2, green cells were noted and all of the cells from each 35 mm dish were passaged to 100 mm dishes. On the following day (day 3) the medium was replaced with fresh medium containing 1 ug/ml blasticidin, a concentration that we had determined would kill most BHK-SR19-T7 cells. On day 4, approximately 200 single green cells and 15 pairs of the green cells were noted. On day 6, 20 pairs of green cells were noted. Many of the cells lacking the replicon had died by that time, but a few resistant colonies were growing. The cells were passaged into 150 mm tissue culture plates, in the presence of 4 or 8 ug/ml blasticidin in an attempt to eliminate resistant BHK cell clones. The following day, day 9, 40% of the 175 cell groups counted were pairs, the remainder being singles. By day 14, 3 colonies of >20 cells had developed, while many of the individual green cells had remained single or died. By day 19, many “mixed” colonies containing both replicon-containing and parental cells were noted, as well as more colonies with only green cells.

Regarding `CN(CC[C@H](N)CC(=O)N[C@H]1C=C[C@H](n2ccc(N)nc2=O)O[C@@H]1C(=O)O)C(=N)N` [blasticidin], the “concentration that would kill most BHK-SR19-T7 cells” value was determined as 1000 ng/mL.
